# US11091478B2 (Fochon Pharmaceuticals, Ltd., priority 2017, dated 2021)
# Columns and labels:
# DOHH2 cells = experiment: Cell proliferation assay (MTS), DOHH2 cells, 120 h; assay type: cell-based; conditions: Homo sapiens, DOHH-2, 120 h
# Procedure, shortened: (§1)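 Cells in RPMI-1640 with 10% FBS were seeded at 5000/well, left overnight at 37° C., 5% CO2, then exposed to compound at 10000 down to 1.5 nM (nine concentrations) for 72 h (RS4;11) or 120 h (DOHH2). Viability was read by MTS, 2 h, absorbance at 490/650 nm; IC50 calculated.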
# RS4;11 cells = experiment: Cell proliferation assay (MTS), RS4;11 cells, 72 h; assay type: cell-based; conditions: Homo sapiens, RS4-11, 72 h
# Procedure, shortened: as §1
SMILES,IC50 (RS4;11 cells),IC50 (DOHH2 cells)
"CC1(C)CCC(CN2CCN(c3ccc(C(=O)NS(=O)(=O)c4cc5c(c([N+](=O)[O-])c4)N[C@H](C4CCN(S(C)(=O)=O)CC4)CO5)c(Oc4cnc5[nH]ccc5c4)c3)CC2)=C(c2ccc(Cl)cc2)C1 [Example 2-225, (R)-2-((1H-pyrrolo[2,3-b]pyridin-5-yl)oxy)-4-(4-((4′-chloro-5,5-dimethyl-3,4,5,6-tetra-hydro-[1,1′-biphenyl]-2-yl)methyl)piperazin-1-yl)-N-((3-(1-(methylsulfonyl)piperidin-4-yl)-5-nitro-3,4-dihydro-2H-benzo[b][1,4]oxazin-7-yl)sulfonyl)benzamide]",2 nM,15 nM
"CC1(C)CCC(CN2CCN(c3ccc(C(=O)NS(=O)(=O)c4cc5c(c([N+](=O)[O-])c4)N[C@H](C4CCNCC4)CO5)c(Oc4cnc5[nH]ccc5c4)c3)CC2)=C(c2ccc(Cl)cc2)C1 [Example 2-226, (R)-2-((1H-pyrrolo[2,3-b]pyridin-5-yl)oxy)-4-(4-((4′-chloro-5,5-dimethyl-3,4,5,6-tetra-hydro-[1,1′-biphenyl]-2-yl)methyl)piperazin-1-yl)-N-((5-nitro-3-(piperidin-4-yl)-3,4-dihydro-2H-benzo[b][1,4]oxazin-7-yl)sulfo-nyl)benzamide]",10 nM,48 nM
"CN1CCC([C@@H]2COc3cc(S(=O)(=O)NC(=O)c4ccc(N5CCN(CC6=C(c7ccc(Cl)cc7)CC(C)(C)CC6)CC5)cc4Oc4cnc5[nH]ccc5c4)cc([N+](=O)[O-])c3N2)CC1 [Example 2-227, (R)-2-((1H-pyrrolo[2,3-b]pyridin-5-yl)oxy)-4-(4-((4′-chloro-5,5-dimethyl-3,4,5,6-tetra-hydro-[1,1′-biphenyl]-2-yl)methyl)piperazin-1-yl)-N-((3-(1-methylpiperidin-4-yl)-5-ni-tro-3,4-dihydro-2H-benzo[b][1,4]oxazin-7-yl)sulfonyl)benzamide]",1 nM,6 nM
"CC1(C)CCC(c2ccc(Cl)cc2)=C(CN2CCN(c3ccc(C(=O)NS(=O)(=O)c4cc5c(c([N+](=O)[O-])c4)N[C@@H](CC4CCOCC4)CO5)c(Oc4cnc5[nH]ccc5c4)c3)CC2)C1 [Example 2-235, (S)-2-((1H-pyrrolo[2,3-b]pyridin-5-yl)oxy)-4-(4-((4′-chloro-4,4-dimethyl-3,4,5,6-tetra-hydro-[1,1′-biphenyl]-2-yl)methyl)piperazin-1-yl)-N-((5-nitro-3-((tetrahydro-2H-pyran-4-yl)methyl)-3,4-dihdyro-2H-benzo[b] [1,4]oxazin-7-yl)sulfonyl)benzamide]",10 nM,23 nM
"CC(C)OC[C@@H]1COc2cc(S(=O)(=O)NC(=O)c3ccc(N4CCN(CC5=C(c6ccc(Cl)cc6)CC(C)(C)CC5)CC4)cc3Oc3cnc4[nH]ccc4c3)cc([N+](=O)[O-])c2N1 [Example 2-236, (R)-2-((1H-pyrrolo[2,3-b]pyridin-5-yl)oxy)-4-(4-((4′-chloro-5,5-dimethyl-3,4,5,6-tetra-hydro-[1,1′-biphenyl]-2-yl)methyl)piperazin-1-yl)-N-((3-(isopropoxymethyl)-5-nitro-3,4-dihydro-2H-benzo[b][1,4]oxazin-7-yl)sulfonyl)benzamide]",1 nM,6 nM
"CC1(C)CCC(CN2CCN(c3ccc(C(=O)NS(=O)(=O)c4cc5c(c([N+](=O)[O-])c4)N[C@H](C4CCCCC4)CO5)c(Oc4cnc5[nH]ccc5c4)c3)CC2)=C(c2ccc(Cl)cc2)C1 [Example 2-238, (R)-2-((1H-pyrrolo[2,3-b]pyridin-5-yl)oxy)-4-(4-((4′-chloro-5,5-dimethyl-3,4,5,6-tetra-hydro-[1,1′-biphenyl]-2-yl)methyl)piperazin-1-yl)-N-((3-cyclohexyl-5-nitro-3,4-dihydro-2H-benzo[b][1,4]oxazin-7-yl)sulfo-nyl)benzamide]",9 nM,18 nM
"CC1(C)CCC(CN2CCN(c3ccc(C(=O)NS(=O)(=O)c4cc5c(c([N+](=O)[O-])c4)N[C@@H](COC4CC4)CO5)c(Oc4cnc5[nH]ccc5c4)c3)CC2)=C(c2ccc(Cl)cc2)C1 [Example 2-241, (S)-2-((1H-pyrrolo[2,3-b]pyridin-5-yl)oxy)-4-(4-((4′-chloro-5,5-dimethyl-3,4,5,6-tetra-hydro-[1,1′-biphenyl]-2-yl)methyl)piperazin-1-yl)-N-((3-(cyclopropoxymethyl)-5-nitro-3,4-dihydro-2H-benzo[b][1,4]oxazin-7-yl)sulfonyl)benzamide]",4 nM,11 nM

# The remaining compounds from weak to strong by IC50 (RS4;11 cells), led by results:
IC50 (RS4;11 cells),SMILES,IC50 (DOHH2 cells)
38 nM,"CC1(C)CCC(CN2CCN(c3ccc(C(=O)NS(=O)(=O)c4cc5c(c([N+](=O)[O-])c4)N[C@@H](C4CCN(C(=O)OC(C)(C)C)CC4)CO5)c(Oc4cnc5[nH]ccc5c4)c3)CC2)=C(c2ccc(Cl)cc2)C1 [Example 2-229, tert-butyl (S)-4-(7-(N-(2-((1H-pyrrolo[2,3-b]pyridin-5-yl)oxy)-4-(4-((4′-chloro-5,5-dimethyl-3,4,5,6-tetrahydro-[1,1′-biphenyl]-2-yl)meth-yl)piperazin-1-yl)benzoyl)sulfamoyl)-5-nitro-3,4-dihydro-2H-benzo[b][1,4]oxazin-3-yl)piperidine-1-carboxylate]",1 nM
17 nM,"CN1CCC([C@H]2COc3cc(S(=O)(=O)NC(=O)c4ccc(N5CCN(CC6=C(c7ccc(Cl)cc7)CC(C)(C)CC6)CC5)cc4Oc4cnc5[nH]ccc5c4)cc([N+](=O)[O-])c3N2)CC1 [Example 2-233, (S)-2-((1H-pyrrolo[2,3-b]pyridin-5-yl)oxy)-4-(4-((4′-chloro-5,5-dimethyl-3,4,5,6-tetra-hydro-[1,1′-biphenyl]-2-yl)methyl)piperazin-1-yl)-N-((3-(1-methylpiperidin-4-yl)-5-ni-tro-3,4-dihydro-2H-benzo[b][1,4]oxazin-7-yl)sulfonyl)benzamide]",13 nM
14 nM,"CC1(C)CCC(c2ccc(Cl)cc2)=C(CN2CCN(c3ccc(C(=O)NS(=O)(=O)c4cc5c(c([N+](=O)[O-])c4)N[C@H](COC4CCOCC4)CO5)c(Oc4cnc5[nH]ccc5c4)c3)CC2)C1 [Example 2-234, (R)-2-((1H-pyrrolo[2,3-b]pyridin-5-yl)oxy)-4-(4-((4′-chloro-4,4-dimethyl-3,4,5,6-tetra-hydro-[1,1′-biphenyl]-2-yl)methyl)piperazin-1-yl)-N-((5-nitro-3-(((tetrahydro-2H-pyran-4-yl)oxy)methyl)-3,4-dihydro-2H-benzo [b][1,4]oxazin-7-yl)sulfonyl)benzamide]",6 nM
14 nM,"CC(C)OC[C@H]1COc2cc(S(=O)(=O)NC(=O)c3ccc(N4CCN(CC5=C(c6ccc(Cl)cc6)CC(C)(C)CC5)CC4)cc3Oc3cnc4[nH]ccc4c3)cc([N+](=O)[O-])c2N1 [Example 2-237, (S)-2-((1H-pyrrolo[2,3-b]pyridin-5-yl)oxy)-4-(4-((4′-chloro-5,5-dimethyl-3,4,5,6-tetra-hydro-[1,1′-biphenyl]-2-yl)methyl)piperazin-1-yl)-N-((3-(isopropoxymethyl)-5-nitro-3,4-dihydro-2H-benzo[b][1,4]oxazin-7-yl)sulfonyl)benzamide]",3 nM
6 nM,"CC1(C)CCC(CN2CCN(c3ccc(C(=O)NS(=O)(=O)c4cc5c(c([N+](=O)[O-])c4)N[C@@H](C4CCN(S(C)(=O)=O)CC4)CO5)c(Oc4cnc5[nH]ccc5c4)c3)CC2)=C(c2ccc(Cl)cc2)C1 [Example 2-232, (S)-2-((1H-pyrrolo[2,3-b]pyridin-5-yl)oxy)-4-(4-((4′-chloro-5,5-dimethyl-3,4,5,6-tetra-hydro-[1,1′-biphenyl]-2-yl)methyl)piperazin-1-yl)-N-((3-(1-(methyslulfonyl)piperidin-4-yl)-5-nitro-3,4-dihydro-2H-benzo[b][1,4]oxazin-7-yl)sulfonyl)benzamide]",1 nM
4 nM,"CC(=O)N1CCC([C@@H]2COc3cc(S(=O)(=O)NC(=O)c4ccc(N5CCN(CC6=C(c7ccc(Cl)cc7)CC(C)(C)CC6)CC5)cc4Oc4cnc5[nH]ccc5c4)cc([N+](=O)[O-])c3N2)CC1 [Example 2-224, (R)-2-((1H-pyrrolo[2,3-b]pyridin-5-yl)oxy)-N-((3-(1-acetylpiperidin-4-yl)-5-nitro-3,4-dihydro-2H-benzo[b][1,4]oxazin-7-yl)sulfo-nyl)-4-(4-((4′-chloro-5,5-dimethyl-3,4,5,6-tetrahydro-[1,1′-biphenyl]-2-yl)methyl)piper-azin-1-yl)benzamide]",3 nM
1 nM,"COC(=O)N1CCC([C@H]2COc3cc(S(=O)(=O)NC(=O)c4ccc(N5CCN(CC6=C(c7ccc(Cl)cc7)CC(C)(C)CC6)CC5)cc4Oc4cnc5[nH]ccc5c4)cc([N+](=O)[O-])c3N2)CC1 [Example 2-230, methyl (S)-4-(7-(N-(2-((1H-pyrrolo[2,3-b]pyridin-5-yl)oxy)-4-(4-((4′-chloro-5,5-dimethyl-3,4,5,6-tetrahydro-[1,1′-biphenyl]-2-yl)methyl)piperazin-1-yl)benzoyl)sulfamoyl)-5-nitro-3,4-dihydro-2H-benzo[b][1,4]oxazin-3-yl) piperidine-1-carboxylate]",2 nM
1 nM,"CC(=O)N1CCC([C@H]2COc3cc(S(=O)(=O)NC(=O)c4ccc(N5CCN(CC6=C(c7ccc(Cl)cc7)CC(C)(C)CC6)CC5)cc4Oc4cnc5[nH]ccc5c4)cc([N+](=O)[O-])c3N2)CC1 [Example 2-231, (S)-2-((1H-pyrrolo[2,3-b]pyridin-5-yl)oxy)-N-((3-(1-acetylpiperidin-4-yl)-5-nitro-3,4-dihydro-2H-benzo[b][1,4]oxazin-7-yl)sulfonyl)-4-(4-((4′-chloro-5,5-dimethyl-3,4,5,6-tetrahydro-[1,1′-biphenyl]-2-yl)methyl)pi-perazin-1-yl)benzamide]",5 nM
